Consider 2 compounds from patent US8629242B2, “Methods of inhibiting calcineurin with ApoE analogs” (Cognosci, Inc., priority 2007, dated 2014).

The test system of one experiment is peritoneal macrophages. The experiment is described as follows: In vitro LPS+IFN-γ challenge of macrophages from COG 133-treated EAE mice. Type of experiment: cell-based. Conditions: macrophages collected dpi 35 from treated mice, vs saline-treated mice, p<0.001. The procedure: FIG. 4. In vivo exposure to COG 133 suppressed in vitro production of inflammatory effectors by peritoneal macrophages. TNF-α (A) and IL-6 (B) were measured by ELISA, and nitrite in culture medium was measured by a Sievers NO Analyzer (C). Statistical analysis was performed by two-tailed student's t test and significance was shown as ** (p<0.01) and *** (p<0.001).
To examine the effect of COG 133 (SEQ ID NO: 1) treatment on activation of macrophages in EAE mice, macrophages were collected from a subset of saline and COG 133-treated mice on dpi 35 and then challenged in vitro with the immune stimulators lipopolysaccharide and interferon-γ (LPS+IFN-γ). Nitrite in culture medium was measured by a Sievers NO Analyzer and TNF-α and IL-6 were measured by ELISA.

Another experiment concerns the target T1, calcineurin (PP2B) (Homo sapiens, UniProt Q08209).
T1 construct: from tissue; host or cells: human brain lysate
Put plainly: Immunoprecipitation with biotin-COG 133 conjugate, blot probed for calcineurin. Type of experiment: binding. Conditions: human brain lysate or primary glial culture; biotin-COG 133 bead conjugate. The procedure: FIG. 14. ApoE analogs bind directly to calcineurin and inhibit its activity. […] (B) Immunoprecipitation of human brain lysate with a biotin-COG 133 conjugate. Lane 1=markers; lane 2=clear bead; lane 3=biotin-COG 133 bead conjugate; and lane 4=10 μg lysate. (C) Immunoprecipitation of different glial cultures with a biotin-COG 133 conjugate. Lane 1=markers; lane 2=astrocyte; lane 3=microglia; and lane 4=oligodendrocyte precursor cells (OPC). Blots in B and C were probed for calcineurin (PP2B).
Calcineurin activity was measured in a cell-free in vitro assay in the presence of various concentrations of COG 133 (SEQ ID NO: 1), COG 112 (SEQ ID NO: 5), COG 68 (SEQ ID NO: 7), COG 125 (Ac-AS(Aib)LRKL(Aib)KR—COOH; SEQ ID NO: 8), or antennapedia (antp), the prefix peptide for COG 112. […] Using a BioMol Calcineurin Phosphatase Activity Kit (Cat. #AK-804), the assay was conducted according to manufacturer's instructions. […] This inhibition of calcineurin activity by ApoE analogs is mediated by a direct interaction of the ApoE analog with the phosphatase.

The test system of the next experiment is enriched OPCs. The experiment is described as follows: OPC proliferation (BrdU) in enriched OPC culture. Type of experiment: cell-based, rat. The conditions noted are these: 1 μM, three days in proliferation medium. The protocol: FIG. 10. ApoE analog promotes proliferation of OPCs in culture. Cultures enriched in OPCs were grown in proliferation media containing BrdU in the presence and absence of 1 μM COG 112 or a peptide control. Cells were subsequently labeled with Hoescht stain to detect nuclei, a BrdU antibody to detect proliferating cells, and an A2B5 antibody to identify OPCs (left panel). The number of cells per field were counted for each condition (right panel). In graph, the Hoescht bars correspond to the total number of A2B5^+/Hoescht^+ cells, while the BrdU bars correspond to […] cells.
Enriched OPCs were collected by shaking a primary culture of P2 rat pup brain. Proliferation medium containing COG 112 (1 μM), BrdU (20 μM), 10 ng/mL FGF and PDGF was added to the enriched OPC cultures. After three days in culture, cells were stained with Hoescht stain to show nuclei, a BrdU antibody to identify proliferating cells, and an A2B5 antibody to identify OPCs (FIG. 10). Antennapedia, the prefix peptide of COG 112, was used as a control.

A further experiment relates to sciatic nerve crush. Put plainly: Sciatic nerve crush model. Format: in vivo, C57BL/6J male mice. The conditions noted are these: 1 mg/kg i.p. daily. The protocol: FIG. 13. COG 112 attenuates axonal neurodegeneration and promotes functional recovery after sciatic nerve crush. C57BL mice were subjected to sciatic nerve crush on left hindlimb using a number 5 jeweler's forceps. The animals received lactated Ringer's buffer or COG 112 (1 mg/kg) by i.p. 2 hr after crush followed by daily dose for 14 days. (A) To assess functional deficits after nerve crush, footprints were recorded and the Sciatic Functional Index (SFI) was calculated. […] Treatment with COG 112 also robustly augmented the mRNA expression of peripheral myelin marker P0 (B) and axonal regeneration marker GAP43 (C) quantified by real-time PCR. **P<0.01; P<0.001. (D) On day 4 after injury, the sciatic nerves were dissected and stained with FD NeuroSilver kit to reveal degenerating axons manifested as dotted lines as depicted in the schematic above the micrographs.
We used a sciatic nerve crush model to investigate whether ApoE analogs can prevent functional loss and/or promote functional recovery after nerve injury. C57BL/6J male mice were anesthetized and the sciatic nerve on left hindlimb was crushed with Number 5 Jeweler's forceps at mid-thigh level for 30 seconds. The animals were then randomly assigned to receive either COG 112 (1 mg/kg, i.p.) or lactated Ringer's buffer two hours after crush followed by daily dose for 14 days. On day 4, two animals from each group were sacrificed and crushed sciatic nerves were dissected and silver stained using a FD NeuroSilver® staining kit to reveal degenerating axons.
On day 7 and 14, footprints for each animal were taken for quantitative assessment of hindlimb motor function. A Sciatic Functional Index (SFI), which takes into account the relationship between toes and feet of an animal's hindlimb, was calculated for each animal as previously described (Bain et al. (1989) Plast. Reconstr. Surg., Vol. 83(1):129-38). SFI values of zero and […] indicate normal and complete dysfunction, respectively.
In order to examine the effect of COG 112 on remyelination and regeneration of axons, segments of sciatic nerves spanning the crushed sites were dissected and collected on day 3, 7 and 14 for examination of P0, a marker of peripheral myelination, and growth associated protein 43 (GAP43), a marker of axonal regeneration, mRNA by real time PCR.

Experiment [1] has as its system NFAT translocation in BV2 cells. Put plainly: LPS-induced NFAT translocation in BV2 cells. Type of experiment: cell-based, murine. Conditions: 2 μM, LPS 10 ng/mL, 15 min. From the text:
FIG. 15. ApoE analog inhibits LPS-induced NFAT translocation. Murine microglial cell line, BV2 cells were stimulated with LPS in the presence or absence of COG 112. NFAT (green signal) and nuclear label (red signal). (A) Untreated cultures; (B) LPS-treated cultures; (C) LPS+COG 112-treated cultures; (D) NFAT translocation was quantified by the fluorescence intensity of green fluorescence in the nucleus defined by yellow area.
Calcineurin dephosphorylates the transcription factor NFAT, which leads to its activation and translocation to the nucleus. Activation of calcineurin and subsequent activation of NFAT is induced by inflammatory stimuli. To further examine the effect of ApoE analogs on calcineurin signaling, murine microglial cell line, BV2 cells were stimulated with LPS (10 ng/mL) in the absence and presence of COG 112 (2 μM). After incubation for 15 min at 37° C., the cells were washed and fixed with 4% formaldehyde. After staining with 1/100 anti-NFAT antibody coupled with Alexaflour and then counterstained with hoescht nuclear dye, NFAT translocation was quantified by the fluorescence intensity of Alexaflour in the nucleus.

With `CC(=O)N[C@@H](CC(C)C)C(=O)N[C@@H](CCCNC(=N)N)C(=O)N[C@H](C(=O)N[C@@H](CCCNC(=N)N)C(=O)N[C@@H](CC(C)C)C(=O)N[C@@H](C)C(=O)N[C@@H](CO)C(=O)N[C@@H](Cc1c[nH]cn1)C(=O)N[C@@H](CC(C)C)C(=O)N[C@@H](CCCNC(=N)N)C(=O)N[C@@H](CCCCN)C(=O)N[C@@H](CC(C)C)C(=O)N[C@@H](CCCNC(=N)N)C(=O)N[C@@H](CCCCN)C(=O)N[C@@H](CCCNC(=N)N)C(=O)N[C@@H](CC(C)C)C(=O)N[C@@H](CC(C)C)C(N)=O)C(C)C` [COG 133], in the experiment with peritoneal macrophages, the “release of IL-6” value was “significantly lower response”, the “release of NO” value is “significantly lower levels of NO” and the “release of TNF-α” value was “significantly lower response”. Also, the “binding of calcineurin (PP2B) in immunoprecipitates” value at calcineurin (PP2B) was “bound”.

With “Ac-RQIKIWFQNRRMKWKKCLRVRLASHLRKLRKRLL-NH2 [COG 112]”, in the experiment on enriched OPCs, the “number of A2B5+/BrdU+ cells” value is reported as “significantly increased”. In the experiment on sciatic nerve crush (2 weeks), the “expression of GAP43 mRNA (real time PCR)” value was “robustly increased” and the “expression of P0 mRNA (real time PCR)” value is on record as “robustly increased”. Further, in the experiment with sciatic nerve crush (2 weeks, vs vehicle, P<0.001), the “functional recovery (Sciatic Functional Index)” value is “significantly improved functional recovery”. For the same compound, the “axonal degeneration (silver staining)” value in the experiment on sciatic nerve crush (day 4) is recorded as “significantly reduced axonal degeneration”. In experiment [1], the “NFAT translocation to the nucleus” value is recorded as “prevented NFAT translocation”.
